According to PubChem BioAssay (NCI):
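Protocol summary: plate cells (96-well), add compound at 5 concentrations, incubate 48 h, interpolate endpoints linearly. At the GI50, growth is halved. TGI: concentration producing complete growth inhibition.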

How the values were obtained:
Assay in all cases: inhibition of tumour cell growth, NCI panel, 48 h
HCT-116 colon = tested on: HCT-116 colon
KM12 colon = tested on: KM12 colon
LOX IMVI melanoma = tested on: LOX IMVI melanoma
M14 melanoma = tested on: M14 melanoma
NCI-H522 lung = tested on: NCI-H522 lung
RXF 393 renal = tested on: RXF 393 renal
SK-MEL-2 melanoma = tested on: SK-MEL-2 melanoma
SK-MEL-28 melanoma = tested on: SK-MEL-28 melanoma
SN12C renal = tested on: SN12C renal
UACC-62 melanoma = tested on: UACC-62 melanoma

Compound	GI50 (HCT-116 colon) [µM]	TGI (HCT-116 colon) [µM]	GI50 (KM12 colon) [µM]	TGI (KM12 colon) [µM]	GI50 (LOX IMVI melanoma) [µM]	TGI (LOX IMVI melanoma) [µM]	GI50 (M14 melanoma) [µM]	TGI (M14 melanoma) [µM]	GI50 (NCI-H522 lung) [µM]	GI50 (RXF 393 renal) [µM]	TGI (RXF 393 renal) [µM]	GI50 (SK-MEL-2 melanoma) [µM]	GI50 (SK-MEL-28 melanoma) [µM]	TGI (SK-MEL-28 melanoma) [µM]	GI50 (SN12C renal) [µM]	TGI (SN12C renal) [µM]	GI50 (UACC-62 melanoma) [µM]	TGI (UACC-62 melanoma) [µM]	TGI (NCI-H522 lung) [µM]	TGI (SK-MEL-2 melanoma) [µM]
COc1ccc2c(c1)/C(=C/c1cc(OC)c(OC)c(OC)c1)C(=O)N2	0.0272	> 100	0.102	> 39.9	0.443	> 100	0.351	11.7	0.25	0.187	0.587	1.18	> 100	> 100	1.18	> 100	0.37	> 100	–	–
O=S(=O)(CCCl)c1ccc(Cl)cc1	2.74	11.9	12.9	31.4	1.91	5.1	5.18	22.2	1.41	2.32	8.96	2.17	2.38	10.8	4.46	16.9	5.63	19.4	3.01	5.55
CC(C)(C)OC(=O)NCCCCCCCn1c2c(c3ccccc3c1=O)C(=O)c1ccccc1-2	17.6	66.6	60.6	> 100	65.2	> 100	44.4	> 100	26.4	16.2	43.5	36.6	50.4	> 100	73.7	> 100	20	72.8	> 100	> 100
Nc1ccc(/C=C/C(=O)NCc2cc3cc(-c4ccc(C(=O)N5CCC(F)(F)CC5)cc4)cc(-c4ccc(F)cc4)c3o2)cn1	0.0491	> 100	1.21	> 100	> 77.5	> 100	0.459	> 55.8	0.773	37.8	> 100	> 100	> 100	> 100	0.0589	> 100	> 100	> 100	> 100	> 100
O=S(=O)(NCCCNc1nccc(-c2c(-c3ccc(F)cc3)nc3sccn23)n1)c1ccc2ccccc2c1	4.41	> 100	2.86	9.96	4.35	> 100	6.53	> 100	5.66	5.21	> 100	6.63	> 100	> 100	4.69	> 100	4.6	> 100	> 100	> 100
CNC(=O)c1nn(C)c2c1C(C)(C)Cc1cnc(Nc3ccc(N4CCN(C)CC4)cc3)nc1-2	0.346	> 9.48	0.347	> 10	0.606	> 10	0.248	> 8.53	0.327	0.343	> 4.5	0.432	2.32	> 10	0.705	> 10	0.486	> 10	> 5.54	> 8.25
